Measurements reported in patent publication US20130165625A1, “PEPTIDES INCORPORATING 3-AMINOADAMANTANE CARBOXYLIC ACIDS ENHANCE SYNAPTIC PLASTICITY AND ACT AS NEUROGENIC AGENTS” (JUSTUS-LIEBIG-UNIVERSITAT GIESSEN, priority 2010, published 2013).
Residues, ends and D or L forms follow the SMILES beside them.

How the values were obtained:
[1] = General examination: body weight and physical state during peptide treatment; format: in vivo, mice; settings: s.c. depot pellets 25 nmol/day for 35 days; for effect on body weight: FIG. 1A, female C57BI6 mice
Experimental: (§1) All in vivo studies for characterization of peptides (stereology and behavioral analysis) were performed on 8-10-month-old female retired breeders of C57BI6 background. Animals were acclimatized for at least 3 weeks to exclude occasional pregnant mice from the studies. Mice were group-housed (3 animals per cage) with a 12:12 hours light/dark cycle and with free access to food and water. All procedures were conducted in accordance with approved protocols from our institutional Animal Welfare Committee. For the peptide treatment, mice (8 animals/group) received subcutaneous implants of long term continuous release depot pellets containing Peptide021 or Peptide022 at 25 nmol/day for 35 days of continuous dosing (Innovative Research of America, Sarasota, Fla.). For the control group (8 animals), pellets consisted of the carrier polymer only. Mice were anesthetized with 2.5% Avertin (0.38 ml for a 25 g animal). Under sterile conditions, pellets were implanted subcutaneously along the anterolateral aspect of the right shoulder with a precision trochar (Innovative Research of America, Sarasota, Fla.). After recovery of anesthesia, animals were transferred to the animal colony. […] To investigate neurogenesis, BrdU (Sigma, St. Louis, Mo.) was given as two daily i.p. injections (100 mg/kg/dose) for five days starting on day 2 of peptides treatment.
The physical state and condition of animals were carefully monitored throughout the treatment by evaluating grooming, physical state and clasping reflex. Body weight was also recorded.

mice [2] = test: Open field familiarization session (locomotor/exploratory activity and anxiety); format: in vivo; settings: for anxiety level of mice: FIG. 1B, time in centre of arena, first 5 minutes, s.c. pellets 25 nmol/day; for effect on exploratory activity: FIG. 1C, open field, s.c. pellets 25 nmol/day for 35 days
Experimental: as §1
In the one-trial object recognition task, animals are exposed to two different objects which they have to identify as novel or familiar based on the memory of an earlier experience with one of the two objects they encountered in the same open field. The familiar object is explored shorter than the novel encountered one because the representation of the former is still available in memory. The one-trial object recognition task tests some aspects of episodic memory but is limited to memory of an object (what), the location of an object (where), and the context in which is was encountered (which). However, the temporal dimension of the episode remains inaccessible to the experimentator, and because of this reason this task in animals is considered a test of short term memory (Ennaceur, 2010). The test used was an adaptation of the procedure previously described by Sargolini and collaborators (2003). The testing apparatus was a classic open field (i.e. a PVC square arena, 50×50 cm, with walls 40 cm high). The open field was placed in a part of the room separated from the experimentator with a black opaque curtain. The open field was surmounted by a video camera connected to a computer. Three objects were employed in this task. The general procedure consisted of three different phases: a familiarization phase (one session of 20 min), a sample phase, and a test phase. […] Object discrimination (OD) during the test phase was evaluated as […]

mice [3] = test: One-trial object recognition test; format: in vivo; settings: FIG. 1E-F; p<0.05, Student t-test; s.c. pellets 25 nmol/day
Experimental: All in vivo studies for characterization of peptides (stereology and behavioral analysis) were performed on 8-10-month-old female retired breeders of C57BI6 background. Animals were acclimatized for at least 3 weeks to exclude occasional pregnant mice from the studies. Mice were group-housed (3 animals per cage) with a 12:12 hours light/dark cycle and with free access to food and water. All procedures were conducted in accordance with approved protocols from our institutional Animal Welfare Committee. For the peptide treatment, mice (8 animals/group) received subcutaneous implants of long term continuous release depot pellets containing Peptide021 or Peptide022 at 25 nmol/day for 35 days of continuous dosing (Innovative Research of America, Sarasota, Fla.). For the control group (8 animals), pellets consisted of the carrier polymer only. Mice were anesthetized with 2.5% Avertin (0.38 ml for a 25 g animal). […]
In the one-trial object recognition task, animals are exposed to two different objects which they have to identify as novel or familiar based on the memory of an earlier experience with one of the two objects they encountered in the same open field. […] Object discrimination (OD) during the test phase was evaluated as […]

mice [4] = test: Spatial reference memory task in the water maze; format: in vivo; settings: for effect on swim speed: FIG. 1D, water maze, s.c. pellets 25 nmol/day for 35 days; for performance in the learning of spatial memory task in water maze: FIG. 1G, p<0.001, two-way ANOVA, s.c. pellets 25 nmol/day
Experimental: as §1
Spatial reference learning and memory were evaluated in the water maze using a procedure adapted from that previously described by Morris et al. (1982). The test required that mice used a spatial navigational strategy based on a spatial representation of the environment to find a fixed submerged escape platform. The procedure was performed in a 180 cm diameter circular tank. The pool was filled with water (21±1)° C. made opaque by adding white non-toxic paint. Acquisition started with the escape platform (15 cm diameter submerged 1 cm below water surface) in the Northwest quadrant and each animal was given 90 s to find the platform. […] At the end of each trial, the mouse was left on the platform for 20 s, then dried and returned to its home cage until the next trial. Five such acquisition trials were given on each day for four consecutive days. A test for retention, or probe trial (PT), was given 24 hours later. During the probe trial the mouse was allowed to swim in the tank without the escape platform for 60 seconds. This was followed by second and third probe trials 15 and 30 days after the first probe trial. The measures of learning were the time and distance covered to reach the escape platform. For the probe trial, the tank was divided into four imaginary quadrants and a small zone where the escape platform had been. The measures of retention were calculated index as the ratio of time spent or distance covered in target quadrant over them in the three other quadrants. Mouse behavior in the water maze was monitored by a Samsung Digital Camera (SDC 4304) mounted to the ceiling and tracked and timed by a SMART (Pan Lab/San Diego Instruments) version 2.0.14 software. Immunohistochemistry

[5] = tested on: BrdU-positive and BrdU/NeuN-double-positive cells in the dentate gyrus; test: Neurogenesis in the dentate gyrus (BrdU / NeuN immunohistochemistry, unbiased stereology); format: in vivo, mice; settings: p<0.05, s.c. pellets 25 nmol/day
Experimental: as §1
At the end of the behavioral experiment, animals were anesthetized with an overdose of sodium pentobarbital (50 mg/kg) and transcardially perfused with 0.1 M phosphate buffered saline (PBS). After perfusion, the brains were removed from the skull, the left hemisphere was immediately frozen for future biochemical analysis and the right hemisphere was immersion fixed in 4% paraformaldehyde in 0.1 M PBS for at least 24 hours at room temperature. Tissues were equilibrated and stored in 30% sucrose solution at 4° C. until sectioning. The brains were sectioned sagittaly on a freezing sliding microtome at 40 μm through the entire hippocampus and the sections were stored in glycol anti-freeze solution (Ethylene glycol, glycerol and 0.1 M PBS in 3:3:4 ratio) at −20° C. until further processing. For double labeling of BrdU and NeuN, brain sections were pretreated with 2 M HCl at 37° C. for 30 min and neutralized with 0.1 M borate buffer (pH 8.5) for 10 minutes. Tissue sections were incubated first for 30 min with blocking buffer (4% normal goat serum +0.1% Tween-20 in PBS) and then overnight at 4° C. in the presence of BrdU (Millipore Corporation, Billerica, Mass.) and NeuN (Millipore Corporation) antibodies diluted 1:400 and 1:100, respectively. […] Neurogenesis in the dentate gyrus was evaluated by counting the number of BrdU-positive and BrdU/NeuN-double-positive cells in the dentate gyrus (DG). The number of positive cells was determined in every fifth section in a series of 40 μm sagittal sections throughout the DG using unbiased sterology (West et al., 1991). All BrdU-positive cells in the subgranular zone (SGZ) and granule cell layer (GCL) were counted using a fluorescent microscope (Nikon Eclipse 90i, Nikon Corporation, Japan). Double labeled cells were assessed by a confocal imaging system (D-Eclipse C1, Nikon Corporation). […] For each brain, at least 100 cells were counted based on coefficient of error determinations. […]

synaptophysin = test: Expression of synaptophysin in DG (immunohistochemistry, mean optical density); format: in vivo, mice; settings: FIG. 3A; p<0.001; s.c. pellets 25 nmol/day
Experimental: (§2) All in vivo studies for characterization of peptides (stereology and behavioral analysis) were performed on 8-10-month-old female retired breeders of C57BI6 background. Animals were acclimatized for at least 3 weeks to exclude occasional pregnant mice from the studies. Mice were group-housed (3 animals per cage) with a 12:12 hours light/dark cycle and with free access to food and water. All procedures were conducted in accordance with approved protocols from our institutional Animal Welfare Committee. […]
(§3) At the end of the behavioral experiment, animals were anesthetized with an overdose of sodium pentobarbital (50 mg/kg) and transcardially perfused with 0.1 M phosphate buffered saline (PBS). […] Neurogenesis in the dentate gyrus was evaluated by counting the number of BrdU-positive and BrdU/NeuN-double-positive cells in the dentate gyrus (DG). The number of positive cells was determined in every fifth section in a series of 40 μm sagittal sections throughout the DG using unbiased sterology (West et al., 1991). All BrdU-positive cells in the subgranular zone (SGZ) and granule cell layer (GCL) were counted using a fluorescent microscope (Nikon Eclipse 90i, Nikon Corporation, Japan). Double labeled cells were assessed by a confocal imaging system (D-Eclipse C1, Nikon Corporation). […] For each brain, at least 100 cells were counted based on coefficient of error determinations. […]

synapsin I = test: Expression of synapsin I in DG (immunohistochemistry, mean optical density); format: in vivo, mice; settings: FIG. 3B; p<0.001; s.c. pellets 25 nmol/day
Experimental: as §2, §3

[6] = tested on: LIF-induced STAT3 phosphorylation at Tyr705; test: Analysis of STAT3 phosphorylation in HepG2 cells; format: cell-based, human; settings: FIG. 4, different peptide concentrations with 0.25 nM LIF for 15 min, Western blot
Experimental: To investigate the molecular mechanism of action of Peptide021 in LIF signaling, HepG2 human hepatoma cell (ATCC, Manassas, Va.) at 80% confluence were treated with different concentrations of Peptide021 and with 0.25 nM LIF (Chemicon International Inc., Temecula, Calif.) for 15 min. The cells were lysed and subjected to Western blots developed with antibodies anti-phospho-Tyr 705 STAT3 and anti-STAT3 (Cell signaling Technology, Danvers, Mass.).
HepG2 cells were treated with different concentrations of Peptide 021 together with 0.25 nM LIF for 15 min, and then the STAT3 phosphorylation at Tyr705 (pY-STAT3) was determined by Western blots. The pY-STAT3 value was normalized to total STAT3 expression. Data are presented as percentages of the value from cells treated with 0.25 nM LIF alone (100%). *p<0.01.

SMILES	effect on body weight [1]	complications associated with the implantation and treatment [1]	anxiety level of mice (mice [2])	effect on exploratory activity (mice [2])	ability to discriminate a new object versus a familiar object (mice [3])	effect on swim speed (mice [4])	performance in the learning of spatial memory task in water maze (mice [4])	effect in second probe trial (PT2) (mice [4]; FIG. 1H, after 15 days of the end of treatment)	effect in third probe trial (PT3) (mice [4]; FIG. 1H, after 30 days of the end of treatment)	performances in the first probe trial (mice [4]; FIG. 1H, probe trial 24 hours after acquisition, p<0.05)	numbers of BrdU positive cells in the GCL ([5]; FIG. 2B)	numbers of BrdU positive cells in the SGZ ([5]; FIG. 2B)	numbers of BrdU positive cells in the total DG ([5]; FIG. 2B)	number of BrdU/NeuN positive cells in the GCL ([5]; FIG. 2C)	number of BrdU/NeuN positive cells in the total DG ([5]; FIG. 2C)	expression of synaptophysin in the DG (synaptophysin)	expression of synapsin I in the DG (synapsin I)	LIF-induced STAT3 phosphorylation (pY-STAT3 normalized to total STAT3) [6]
CC(=O)N[C@@H](CC(=O)O)C(=O)NCC(=O)NCC(=O)N[C@@H](CC(C)C)C(=O)N[C@]12CC3CC(C1)C[C@@](C(N)=O)(C3)C2 [Peptide 021, Ac-Asp-Gly-Gly-Leu-^AGly-NH2] (HELM PEPTIDE1{[ac].D.G.G.L.[NC(=O)[C@]12CC3CC(C[C@](N[*:1])(C3)C1)C2]}$$$$V2.0)	did not induce any effect	No complications	reduced	did not induce any effect	significantly improved	did not induce any effect	increased performance	no longer effect	no longer effect	improved performances	significantly increased	significantly increased	significantly increased	significantly increased	significantly increased	significantly promoted	significantly promoted	Inhibition
CC(C)C[C@H](NC(=O)CNC(=O)CNC(=O)[C@H](CC(=O)O)NC(=O)C12CC3CC(CC(C3)C1)C2)C(=O)NC12CC3CC(C1)CC(C(N)=O)(C3)C2 [Peptide 022, 1-AdCO-DGGL^AG-NH2] (HELM PEPTIDE1{[O=C(C12CC3CC(CC(C3)C1)C2)[*:2]].D.G.G.L.[NC(=O)C12CC3CC(CC(N[*:1])(C3)C1)C2]}$$$$V2.0)	did not induce any effect	No complications	reduced	did not induce any effect		did not induce any effect	increased performance											
